In ChEMBL document CHEMBL1140770, “Chemo-, regio-, and stereoselectivity of F-ring opening reactions in the cephalostatin series” (2008) one finds GI50, TGI and CC50 data, which are given here for nine molecules.

Common to all, as to type: functional
Holding throughout (details): for CC50: read-out: LC50 (the source's name)

One assay concerns HepG2. Briefly: Cytostatic activity against human HepG2 cells by SRB assay.
A short description of assay [1]: Cytostatic activity against human HM02 cells by SRB assay.
A further assay deals with MCF7. Briefly: Cytostatic activity against human MCF7 cells by SRB assay.

Each structure is given as a SMILES string.

On to `C[C@H]1CC[C@@]2(OC1)O[C@H]1C=C3[C@@H]4CC[C@H]5Cc6nc7c(nc6C[C@]5(C)[C@H]4C[C@@H](O)[C@]3(C)[C@H]1[C@@H]2C)C[C@@H]1CC[C@H]2C3=C[C@@H]4O[C@]5(CC[C@H](C)CO5)[C@@H](C)[C@@H]4[C@@]3(C)[C@H](O)C[C@@H]2[C@@]1(C)C7`, for which, in the assay with HepG2, the GI50 is 0.65 µM, the TGI was found to be 5 µM and the CC50 was above 10 µM. In addition, in assay [1], halving of growth (GI50) required 2.6 µM, total growth inhibition (TGI) required 7 µM and the CC50 is above 10 µM. Also, in the assay with MCF7, growth was halved (GI50) at 5.2 µM, the TGI is above 10 µM and the CC50 was above 10 µM.

Turning to `C[C@H]1CC[C@@]2(OC1)O[C@H]1C=C3[C@@H]4CC[C@H]5Cc6nc7c(nc6C[C@]5(C)[C@H]4CC(=O)[C@]3(C)[C@H]1[C@@H]2C)C[C@@H]1CC[C@H]2C3=C[C@@H]4O[C@]5(CC[C@H](C)CO5)[C@@H](C)[C@@H]4[C@@]3(C)[C@H](O)C[C@@H]2[C@@]1(C)C7`, the GI50 was above 10 µM in the assay with HepG2, 3 µM in assay [1] and above 10 µM in the assay on MCF7. Moreover, the TGI (in the assay on HepG2; in assay [1]; with MCF7) was above 10 µM each time. Further, the CC50 (with HepG2; in assay [1]; in the assay with MCF7) was above 10 µM throughout.

As for `C[C@H]1CC[C@@]2(OC1)O[C@H]1C=C3[C@@H]4CC[C@H]5Cc6nc7c(nc6C[C@]5(C)[C@H]4C[C@@H](O)[C@]3(C)[C@H]1[C@@H]2C)C[C@@H]1CC[C@H]2C3=C[C@@H]4O[C@]5(CC[C@H](C)CO5)[C@@H](C)[C@@H]4[C@@]3(C)C3(C[C@@H]2[C@@]1(C)C7)OCCO3`, in the assay on HepG2, growth was halved (GI50) at 0.07 µM, the TGI was 1.7 µM and the CC50 was above 10 µM. In assay [1], the GI50 worked out at 2.8 µM, the TGI is above 10 µM and the CC50 was above 10 µM. Moreover, in the assay on MCF7, growth was halved (GI50) at 0.1 µM, the TGI was above 10 µM and the CC50 is above 10 µM.

As for `C[C@H](CO)CC[C@H]1O[C@H]2C=C3[C@@H]4CC[C@H]5Cc6nc7c(nc6C[C@]5(C)[C@H]4C[C@@H](O)[C@]3(C)[C@H]2[C@@H]1C)C[C@@H]1CC[C@H]2C3=C[C@@H]4O[C@H](CC[C@H](C)CO)[C@@H](C)[C@@H]4[C@@]3(C)C3(C[C@@H]2[C@@]1(C)C7)OCCO3`, in the assay with HepG2, the GI50 was 1 µM, the TGI was above 10 µM and the CC50 was above 10 µM. Further, in assay [1], halving of growth (GI50) required 0.63 µM, total growth inhibition (TGI) required 1 µM and the CC50 was above 10 µM. Besides, in the assay with MCF7, the GI50 came out at 8.2 µM, the TGI is above 10 µM and the CC50 was above 10 µM.

For the molecule `C[C@H]1CC[C@@]2(OC1)O[C@H]1C=C3[C@@H]4CC[C@H]5Cc6nc7c(nc6C[C@]5(C)[C@H]4CC(=O)[C@]3(C)[C@H]1[C@@H]2C)C[C@@H]1CC[C@H]2C3=C[C@@H]4O[C@]5(CC[C@H](C)CO5)[C@@H](C)[C@@H]4[C@@]3(C)C(=O)C[C@@H]2[C@@]1(C)C7`, in the assay with HepG2, the GI50 worked out at 4.6 µM, the TGI is above 10 µM and the CC50 was above 10 µM. In assay [1], the GI50 worked out at 5.5 µM, total growth inhibition (TGI) required 7 µM and the CC50 was above 10 µM. In the assay with MCF7, the GI50 was above 10 µM, the TGI is above 10 µM and the CC50 was above 10 µM.

As to `C=C1C[C@H]2[C@@H](CC[C@H]3Cc4nc5c(nc4C[C@@]32C)C[C@@H]2CC[C@H]3C4=C[C@@H]6O[C@]7(CC[C@H](C)CO7)[C@@H](C)[C@@H]6[C@@]4(C)C(=O)C[C@@H]3[C@@]2(C)C5)C2=C[C@@H]3O[C@]4(CC[C@H](C)CO4)[C@@H](C)[C@@H]3[C@@]12C`, in the assay with HepG2, the GI50 was above 10 µM, the TGI is above 10 µM and the CC50 is above 10 µM. Further, in assay [1], the GI50 was above 10 µM, the TGI is above 10 µM and the CC50 is above 10 µM. Further, in the assay on MCF7, the GI50 was above 10 µM, the TGI was above 10 µM and the CC50 is above 10 µM.

As for `C[C@H]1CC[C@@]2(OC1)O[C@H]1C=C3[C@@H]4CC[C@H]5Cc6nc7c(nc6C[C@]5(C)[C@H]4C[C@@H](O)[C@]3(C)[C@H]1[C@@H]2C)C[C@@H]1CC[C@H]2C3=C[C@@H]4O[C@]5(CC[C@H](C)CO5)[C@@H](C)[C@@H]4[C@@]3(C)C(CO)C[C@@H]2[C@@]1(C)C7` (stereo partly specified), the GI50 in the assay with HepG2 came out at 6.9 µM; in assay [1] it was 2.3 µM; in the assay with MCF7 it was 0.1 µM. Also, the TGI was 10 µM in the assay with HepG2, above 10 µM in assay [1] and above 10 µM in the assay on MCF7. The CC50 (with HepG2; in assay [1]; with MCF7) was above 10 µM in each case.

With `C=C1C[C@H]2[C@@H](CC[C@H]3Cc4nc5c(nc4C[C@@]32C)C[C@@H]2CC[C@H]3C4=C[C@@H]6O[C@H](CC[C@H](C)CO)[C@@H](C)[C@@H]6[C@@]4(C)[C@H](O)C[C@@H]3[C@@]2(C)C5)C2=C[C@@H]3O[C@H](CC[C@H](C)CO)[C@@H](C)[C@@H]3[C@@]12C`, in the assay on HepG2, the GI50 worked out at 1 µM, the TGI is above 10 µM and the CC50 is above 10 µM. In assay [1], halving of growth (GI50) required 1.7 µM, total growth inhibition (TGI) required 5.8 µM and the CC50 came to 9.5 µM. For the same molecule, in the assay with MCF7, the GI50 was 5 µM, the TGI is above 10 µM and the CC50 was above 10 µM.

Regarding `C[C@H](CO)CC[C@H]1O[C@H]2C=C3[C@@H]4CC[C@H]5Cc6nc7c(nc6C[C@]5(C)[C@H]4CC4(OCCO4)[C@]3(C)[C@H]2[C@@H]1C)C[C@@H]1CC[C@H]2C3=C[C@@H]4O[C@]5(CC[C@H](C)CO5)[C@@H](C)[C@@H]4[C@@]3(C)[C@H](O)C[C@@H]2[C@@]1(C)C7`, in the assay on HepG2, the concentration for 50% growth inhibition (GI50) came to 10 µM, the TGI is above 10 µM and the CC50 was above 10 µM. In assay [1], it took 0.95 µM to inhibit growth by half (GI50), the TGI amounted to 3.1 µM and the CC50 was above 10 µM. Further, in the assay on MCF7, it took 2.5 µM to inhibit growth by half (GI50), the TGI came to 10 µM and the CC50 was above 10 µM.
